The source of these data is US11447460B2, “Compounds and compositions for treating conditions associated with NLRP activity” (Novartis AG, priority 2016, dated 2022).

The subject of this assay is IL-1β production in PMA-differentiated THP-1 cells. The experiment in a line: IL-1β production in PMA-differentiated THP-1 cells stimulated with gramicidin (hTHP-1 assay, 2% bovine serum; Bioassays 1 and 2). The assay is classed as cell-based, human. The settings on record: hTHP-1 assay containing 2% bovine serum, Table 12, by Example #, read-out: Average IC50 of compounds in hTHP-1 assay. The protocol: IL-1β Production in PMA-Differentiated THP-1 Cells Stimulated with Gramicidin.
Cell culture-THP-1 cells were purchased from the American Type Culture Collection and sub-cultured according to instructions from the supplier. Prior to experiments, cells were cultured in RPMI 1640 containing 10% heat inactivated FBS, penicillin (100 units/ml) and streptomycin (100 μg/ml), and maintained in log phase prior to experimental setup. Prior to the experiment THP-1 were treated with PMA (Phorbol 12-myristate 13-acetate) (10 μg/ml) for 24 hours. The day of the experiment the media was removed and attaching cells were treated with trypsin for 2 minutes, cells were then collected, washed with PBS (phosphate buffer saline), spin down, resuspended in 2% heat inactivated FBS with RPMI at a concentration of 1×10^6 cells/ml, and 100 ul was plated in a 96 well plate. Cells were incubated with compounds for 1 hours and then stimulated with Gramicidin (5 μM) (Enzo) for 2 hours. Cell free supernatant was collected and the production of IL-1β was evaluated by ELISA. Compounds were dissolved in dimethyl sulfoxide (DMSO) and added to the culture medium to achieve desired concentration (e.g. 100, 30, 10, 3, 1, 0.3 or 0.1 μM). A vehicle only control was run concurrently with each experiment. Final DMSO concentration was 1%.
THP-1 cells were purchased from the American Type Culture Collection and sub-cultured according to instructions from the supplier. Prior to experiments, cells were cultured in complete RPMI 1640 (containing 10% heat inactivated FBS, penicillin (100 units/ml) and streptomycin (100 μg/ml)), and maintained in log phase prior to experimental setup. Prior to the experiment THP-1 were treated with PMA (Phorbol 12-myristate 13-acetate) (20 ng/ml) for 16-18 hours. On the day of the experiment the media was removed and adherent cells were detached with trypsin for 5 minutes. Cells were then harvested, washed with complete RPMI 1640, spun down, resuspended in RPMI 1640 (containing 2% heat inactivated FBS, penicillin (100 units/ml) and streptomycin (100 μg/ml). The cells were plated in a 384-well plate at a density of 50,000 cells/well (final assay volume 50 μl). Compounds were dissolved in dimethyl sulfoxide (DMSO) and added to the culture medium to achieve desired concentration (e.g. 100, 33, 11, 3.7, 1.2, 0.41, 0.14, 0.046, 0.015, 0.0051, 0.0017 μM). Cells were incubated with compounds for 1 hour and then stimulated with gramicidin (5 μM) (Enzo) for 2 hours. Cell free supernatant was collected and the production of IL-10 was evaluated by HTRF (cisbio). A vehicle only control was run concurrently with each experiment. Final DMSO concentration was 0.38%.
Compounds tested with protocols 1 and 2 provided IC50 values that are within the variability of the assay.
Tables 12 and 13 show the biological activity of compounds in hTHP-1 assay containing 2% bovine serum: <1 μM=“++++”; ≥1 and <5 μM=“+++”; ≥5 and <15 μM=“++”; ≥15 and <60 μM=“+”.

The structures appear in SMILES notation. pIC50: −log10 of the molar value. Where two headings read alike, the source gives them in different places.

As usually defined, the pIC50 is the IC50 on a negative log10 scale, so that one unit is a factor of ten. For the compound `CC(C)c1cc(F)cc(C(C)C)c1CC(=O)NS(=O)(=O)c1cnc2ccccc2c1` [Example 40, 2-(4-fluoro-2,6-diisopropylphenyl)-N-(quinolin-3-ylsulfonyl)acetamide], the pIC50 (Homo sapiens, THP-1) is 4.22 to 4.82.

As for `CC(C)c1cc(Cl)cc(C(C)C)c1CC(=O)NS(=O)(=O)c1ccn(C(C)C)n1` [Example 61, 2-(4-chloro-2,6-diisopropylphenyl)-N-(1-isopropyl-1H-pyrazol-3-ylsulfonyl)acetamide], where the note is “Homo sapiens, THP-1”, the pIC50 is 4.82 to 5.30.

As to `CC(C)c1cc(C#N)cc(C(C)C)c1CC(=O)NS(=O)(=O)c1cc(C2(O)CC2)cs1` [Example 16, 2-(4-cyano-2,6-diisopropylphenyl)-N-(4-(1-hydroxycyclopropyl)thiophen-2-ylsulfonyl)acetamide], for the setting “Homo sapiens, THP-1”, the pIC50 was more than 6.00.

With `CC(C)c1cccc(C(C)C)c1CC(=O)NS(=O)(=O)c1cc(C(C)(C)O)n(-c2ccccc2)n1` [Example 63, 2-(2,6-diisopropylphenyl)-N-(5-(2-hydroxypropan-2-yl)-1-phenyl-1H-pyrazol-3-ylsulfonyl)acetamide], for the setting “Homo sapiens, THP-1”, the pIC50 is 4.82 to 5.30.

As for `CC(C)c1cc(F)cc(C(C)C)c1CC(=O)NS(=O)(=O)c1ccc(C(C)(C)O)cc1F` [Example 54, 2-(4-fluoro-2,6-diisopropylphenyl)-N-(2-fluoro-4-(2-hydroxypropan-2-yl)phenylsulfonyl)acetamide], the negative-log IC50 (pIC50) (Homo sapiens, THP-1) was more than 6.00.

Turning to `Cc1ccc(S(=O)(=O)NC(=O)Cc2c(C(C)C)cc(F)cc2C(C)C)cc1C(C)(C)O` [Example 45, 2-(4-fluoro-2,6-diisopropylphenyl)-N-(3-(2-hydroxypropan-2-yl)-4-methylphenylsulfonyl)acetamide], for the setting “Homo sapiens, THP-1”, the pIC50 was 5.30 to 6.00.

Consider `CC(C)c1cc(F)c(F)c(C(C)C)c1CC(=O)NS(=O)(=O)c1ncc(C(C)(C)O)s1` [Example 76, 2-(3,4-difluoro-2,6-diisopropylphenyl)-N-(5-(2-hydroxypropan-2-yl)thiazol-2-ylsulfonyl)acetamide], for which, for the setting “Homo sapiens, THP-1”, the negative-log IC50 (pIC50) was more than 6.00.

For the compound `CC(C)c1cc(F)cc(C(C)C)c1CC(=O)NS(=O)(=O)c1cnc(C(C)(C)O)s1` [Example 75, 2-(4-fluoro-2,6-diisopropylphenyl)-N-(2-(2-hydroxypropan-2-yl)thiazol-5-ylsulfonyl)acetamide], the pIC50 (Homo sapiens, THP-1) is more than 6.00.

On to `CC(C)c1ccc(F)c(C(C)C)c1CC(=O)NS(=O)(=O)c1cc(C(C)(C)O)cs1` [Example 11, 2-(3-fluoro-2,6-diisopropylphenyl)-N-(4-(2-hydroxypropan-2-yl)thiophen-2-ylsulfonyl)acetamide], for which, under “Homo sapiens, THP-1”, the pIC50 is more than 6.00.

As to `CC(C)c1cc(C#N)cc(C(C)C)c1CC(=O)NS(=O)(=O)c1cc(C(C)(C)O)n(C)n1` [Example 68, 2-(4-cyano-2,6-diisopropylphenyl)-N-(5-(2-hydroxypropan-2-yl)-1-methyl1H-pyrazol-3-ylsulfonyl)acetamide], the pIC50 (Homo sapiens, THP-1) is 4.82 to 5.30.

For the compound `CC(C)(O)c1csc(S(=O)(=O)NC(=O)Cc2c3c(cc4c2CCC4)CCC3)c1` [Example 7, 2-(1,2,3,5,6,7-hexahydro-sindacen-4-yl)-N-(4-(2-hydroxypropan-2-yl)thiophen-2-ylsulfonyl)acetamide], the pIC50 was 4.82 to 5.30.

Regarding `CC(C)c1cc(C#N)cc(C(C)C)c1CC(=O)NS(=O)(=O)c1ncc(C(C)(C)O)s1` [Example 6, 2-(4-cyano-2,6-diisopropylphenyl)-N-(5-(2-hydroxypropan-2-yl)thiazol-2-ylsulfonyl)acetamide], the pIC50 (Homo sapiens, THP-1) is 5.30 to 6.00.

As to `CC(C)c1cc(F)cc(C(C)C)c1CC(=O)NS(=O)(=O)c1cc(C2(O)CC2)cs1` [Example 15, 2-(4-fluoro-2,6-diisopropylphenyl)-N-(4-(1-hydroxycyclopropyl)thiophen-2-ylsulfonyl)acetamide], the pIC50 (Homo sapiens, THP-1) was 5.30 to 6.00.

Turning to `CC(C)c1cc(F)cc(C(C)C)c1CC(=O)NS(=O)(=O)c1ncc(C(C)(C)O)s1` [Example 89, 2-(4-Fluoro-2,6-diisopropylphenyl)-N-(5-(2-hydroxypropan-2-yl)thiazol-2-ylsulfonyl)acetamide], the pIC50 (Homo sapiens, THP-1) is 5.30 to 6.00.

As to `CC(C)c1c(F)c(Cl)c(F)c(C(C)C)c1CC(=O)NS(=O)(=O)c1ncc(C(C)(C)O)s1` [Example 83, 2-(4-chloro-3,5-difluoro-2,6-diisopropylphenyl)-N-(5-(2-hydroxypropan-2-yl)thiazol-2-ylsulfonyl)acetamide], where the note is “Homo sapiens, THP-1”, the pIC50 is more than 6.00.

As to `CC(C)c1cc(F)cc(C(C)C)c1CC(=O)NS(=O)(=O)c1ccc(C(C)(C)O)nc1` [Example 36, 2-(4-fluoro-2,6-diisopropylphenyl)-N-(6-(2-hydroxypropan-2-yl)pyridin-3-ylsulfonyl)acetamide], the pIC50 (Homo sapiens, THP-1) is 5.30 to 6.00.

Turning to `CC(C)c1cc(F)cc(C(C)C)c1CC(=O)NS(=O)(=O)c1cc(Cl)cc(C(C)(C)O)c1` [Example 27, N-(3-chloro-5-(2-hydroxypropan-2-yl)phenylsulfonyl)-2-(4-fluoro-2,6-diisopropylphenyl)acetamide], under “Homo sapiens, THP-1”, the pIC50 is 5.30 to 6.00.

Turning to `CC(C)c1cc(F)cc(C(C)C)c1CC(=O)NS(=O)(=O)c1cc(C(C)(C)O)n(-c2ccccc2)n1` [Example 64, 2-(4-fluoro-2,6-diisopropylphenyl)-N-(5-(2-hydroxypropan-2-yl)-1-phenyl-1H-pyrazol-3-ylsulfonyl)acetamide], for the setting “Homo sapiens, THP-1”, the pIC50 was 5.30 to 6.00.

Turning to `CC(C)c1cc(F)cc(C(C)C)c1CC(=O)NS(=O)(=O)c1cccc(S(C)(=O)=O)c1` [Example 59, 2-(4-fluoro-2,6-diisopropylphenyl)-N-(3-(methylsulfonyl)phenylsulfonyl)acetamide], the pIC50 (Homo sapiens, THP-1) is 4.22 to 4.82.

`CC(C)(O)c1cnc(S(=O)(=O)NC(=O)Cc2c(C3CC3)cccc2C2CC2)s1` [Example 78, 2-(2,6-dicyclopropylphenyl)-N-(5-(2-hydroxypropan-2-yl)thiazol-2-ylsulfonyl)acetamide]: under “Homo sapiens, THP-1”, the pIC50 is 4.82 to 5.30.

`CC(C)c1cc(F)cc(C(C)C)c1CC(=O)NS(=O)(=O)c1ncc(C(C)(C)CO)s1` [Example 4, 2-(4-Fluoro-2,6-diisopropylphenyl)-N-(5-(1-hydroxy-2-methylpropan-2-yl)thiazol-2-ylsulfonyl)acetamide]: the pIC50 (Homo sapiens, THP-1) was 4.82 to 5.30.

In the case of `CC(C)c1cc(F)cc(C(C)C)c1CC(=O)NS(=O)(=O)c1cc(-c2ccccc2)cc(C(C)(C)O)c1` [Example 32, 2-(4-fluoro-2,6-diisopropylphenyl)-N-(5-(2-hydroxypropan-2-yl)biphenyl-3-ylsulfonyl)acetamide], the pIC50 (Homo sapiens, THP-1) was 4.82 to 5.30.

`Cc1cc(S(=O)(=O)NC(=O)Cc2c(C(C)C)cc(F)cc2C(C)C)ccc1C(C)(C)O` [Example 47, 2-(4-fluoro-2,6-diisopropylphenyl)-N-(4-(2-hydroxypropan-2-yl)-3-methylphenylsulfonyl)acetamide]: under “Homo sapiens, THP-1”, the pIC50 was 5.30 to 6.00.

Regarding `CC(=O)c1ccc(F)c(S(=O)(=O)NC(=O)Cc2c(C(C)C)cc(F)cc2C(C)C)c1` [Example 55], the pIC50 is 5.30 to 6.00.

Turning to `CC(C)c1cc(F)cc(C(C)C)c1CC(=O)NS(=O)(=O)c1cc(C2(C)OCCO2)ccc1F` [Example 56, 2-(4-fluoro-2,6-diisopropylphenyl)-N-(2-fluoro-5-(2-methyl-1,3-dioxolan-2-yl)phenylsulfonyl)acetamide], the pIC50 (Homo sapiens, THP-1) was more than 6.00.

As for `CC(C)c1c(F)cc(F)c(C(C)C)c1CC(=O)NS(=O)(=O)c1ncc(C(C)(C)O)s1` [Example 77, 2-(3,5-difluoro-2,6-diisopropylphenyl)-N-(5-(2-hydroxypropan-2-yl)thiazol-2-ylsulfonyl)acetamide], the pIC50 (Homo sapiens, THP-1) is 5.30 to 6.00.

As to `CC(C)c1ccc(F)c(C(C)C)c1CC(=O)NS(=O)(=O)c1ncc(C(C)(C)O)s1` [Example 71, 2-(3-fluoro-2,6-diisopropylphenyl)-N-(5-(2-hydroxypropan-2-yl)thiazol-2-ylsulfonyl)acetamide], the pIC50 (Homo sapiens, THP-1) is 5.30 to 6.00.

Take `CC(C)c1cc(C#N)cc(C(C)C)c1CC(=O)NS(=O)(=O)c1ccc(C(C)(C)O)cc1` [Example 35, 2-(4-cyano-2,6-diisopropylphenyl)-N-(4-(2-hydroxypropan-2-yl)phenylsulfonyl)acetamide]: the pIC50 (Homo sapiens, THP-1) was 5.30 to 6.00.
